Results on 18 compounds are retold here after PMC8877905, “Novel Cocrystals of Vonoprazan: Machine Learning-Assisted Discovery” (Pharmaceutics, 2022).

Read-outs that look alike come from different tables or passages of the source.

Data set [1] can be described thus: pKa calculation with ChemAxon calculator and ΔpKa rule. As to conditions: pKa (base) − pKa (acid); VPZ pKa = 9.4 versus calculated coformer pKa. An excerpt: The combination with a value 0 ≤ ΔpKa ≤ 3 is much less predictable and falls within a “salt-cocrystal continuum” [38]. We applied this approach to the coformers selected based on virtual cocrystal screening to assess whether the combination would form a cocrystal or salt (Table 1).

Data set [2] can be described thus: Equilibrium solubility in pH 1.2 and pH 6.8 solutions, 37 °C, 24 h, HPLC. As to conditions: for solubility thermodynamic at 24 h: 37 °C, VPZ concentration by HPLC. Type of data set: physicochemical. The method, then: Excess amounts (~500 mg) of powder samples were added to 10 mL of pH 1.2 solution and 30 mL of pH 6.8 solution. […] After 24 h, aliquots of 2.5 mL were withdrawn from the suspension using a 0.45 μm nylon syringe filter and diluted immediately, followed by analysis of the VPZ concentration by HPLC.
The VPZ concentration was measured using an HPLC system (UFLC; Shimadzu) with a diode array detector and Shim-pack GIS-ODS C18 column (4.6 × 250 mm, 5 μm). HPLC analysis was conducted at a column oven temperature of 40 °C with a flow rate of 1 mL/min, and the mobile phase was a mixture of 20 mM ammonium formate in water (pH 3.05) and HPLC-grade MeOH with the addition of 10 mM triethylamine (TEA) (80% : 20%, v/v). The volume of the injected samples was 10 μL and the VPZ content was assayed spectrophotometrically at a wavelength of 245 nm.

Data set [3] in a line: Intrinsic dissolution rate (IDR) in phosphate buffer pH 6.8. The data set is classed as physicochemical. As to conditions: for IDR in pH 6.8: phosphate buffer pH 6.8, 37 °C, 50 rpm, 13 mm pellet. The method, then: IDR was investigated using a Distek […] dissolution tester (Distek, North Brunswick, NJ, USA). […] Aliquots of 1.5 mL of the dissolution samples were collected at predetermined time intervals, filtered through 0.45 μm syringe filters, and analyzed for their VPZ concentration by HPLC. The VPZ concentration was measured using an HPLC system (UFLC; Shimadzu) with a diode array detector and Shim-pack GIS-ODS C18 column (4.6 × 250 mm, 5 μm). […] The volume of the injected samples was 10 μL and the VPZ content was assayed spectrophotometrically at a wavelength of 245 nm.

A short description of data set [4]: Stability in aqueous solution: PXRD of solids remaining after 24 h slurry. The data set is classed as physicochemical. As to conditions: pH 6.8 solution, slurry for 24 h. Here is the method:
The solubility and dissolution behavior of drugs in aqueous solvent are important physicochemical properties for good oral bioavailability. VPZ has pH-dependent solubility, which increases with decreasing pH. […] The aqueous solubility for cocrystals and salts of VPZ was measured in pH 1.2 and 6.8 buffer solutions at 37 °C. VPZ concentrations were determined in aliquots retrieved from the suspensions after 24 h by HPLC. One of the major challenges in investigations of solubility in multicomponent solid forms is the change in the solution composition due to precipitation of the components dissociated over the test period. In this study, the stability of the cocrystals in aqueous solution was checked by PXRD analysis of the solids remaining after solubility experiments. At pH 1.2, however, the amount recovered from the suspensions was too low to confirm their stability. […] Under both conditions, the solubility order was VPZ–RES > VPZ–CAT > VPZ–GAL.

Data set [5] in a line: Accelerated stability testing in the solid state. Type of data set: physicochemical.
On the set-up of data set [6]: method as in PMID 28578848. As to conditions: cited from earlier work.

Consider `O=C(O)c1ccc(O)cc1` [4-hydroxybenzoic acid], for which, in data set [1], the ΔpKa is 5.02. On the same count and under the same terms, for `NC(=O)c1ccccc1` [Benzamide] the value was −5.16. Still for that read-out and setting: for `NC(=O)CO` [Glycolamide] the value was −4.25. Same read-out and setting: under `Oc1ccc(O)cc1` [Hydroquinone] stands −0.58; under `NC(=O)c1ccncc1` [Isonicotinamide], −4.31.

As to `Cc1cc(O)ccc1O` [Methyl-hydroquinone], the ΔpKa in data set [1] is listed as −0.7.

On to `NC(=O)c1cccnc1` [Nicotinamide], for which the ΔpKa in data set [1] is reported as −3.99. On the same count and under the same terms, for `NC(=O)C(=O)O` [Oxamic acid] the value was 6.92. The same measure, in the same setting: under `Oc1ccccc1O` [Pyrocatechol] stands −0.24; under `Oc1cccc(O)c1O` [Pyrogallol], 0.3; under `O=C1CC[C@@H](C(=O)O)N1` [Pyroglutamic acid], 5.79.

Consider `O=C(O)c1ccc[nH]1` [Pyrrole-2-carboxylic acid], for which the ΔpKa in data set [1] is 5.78.

Consider `Oc1cccc(O)c1` [Resorcinol], for which the ΔpKa in data set [1] is on record as −0.17. Same read-out and setting: for `O=C(O)CCC(=O)O` [Succinic acid] the value was 5.54; for `NC(N)=O` [Urea], −6.9. `CNCc1cc(-c2ccccc2F)n(S(=O)(=O)c2cccnc2)c1.O=C(O)/C=C/C(=O)O` [VPZ-FUM, 1-[5-(2-Fluorophenyl)-1-(pyridin-3-ylsulfonyl)-1H-pyrrol-3-yl]-N-methylmethanamine monofumarate]: the solubility at 24 h was determined as 27600 µg/mL in data set [2] (Figure 7a, pH 1.2 buffer, read-out: Solubility in pH 1.2 buffer, Concentration) and 3400 µg/mL in data set [2] (Figure 7b, pH 6.8 buffer, read-out: Solubility in pH 6.8 buffer, Concentration). The solubility thermodynamic at 24 h in data set [2] (pH 1.2 solution, read-out: Equilibrium Solubility after 24 h in pH 1.2) was 27710 ± 210 µg/mL; in data set [2] (pH 6.8 solution, read-out: Equilibrium Solubility after 24 h in pH 6.8), 3400 ± 450 µg/mL. Further, the “time to reach peak concentration in IDR plot” value in data set [3] (pH 6.8 buffer) is at most 60 min. The “IDR in pH 6.8” value in data set [3] was found to be 1.35 mg/cm^2∙min. Moreover, the “stability in aqueous solution (PXRD of undissolved residue)” value in data set [4] is on record as “different from those of the starting material”. Further, the “stability in the solid state” value in data set [5] is recorded as “remained stable”. Further, in data set [6], the “reported solubility in water” value was below 1000 µg/mL. As for `O=C1NS(=O)(=O)c2ccccc21` [saccharin], in data set [1], the ΔpKa is recorded as 7.46. Regarding Vonoprazan–pyrogallol [VPZ-GAL], in data set [3], the “IDR in pH 6.8” value is 0.69 mg/cm^2∙min.
